Results as given in US20130011384A1, “Use of a Material, Produced from Fungal Fermentation, as a Food Supplement” (priority 2010, published 2013).

Tested on: methanogenic archaea
Test: In vitro sequential batch fermentation of sheep ruminal fluid with alfalfa hay (Example 2)
Format: cell-based
Details: for Acetate / Butyrate / Gas / Methane / Propionate / Total VFA: 48 hrs at 39° C., 100 μl/tube, monacolin K 20 μg/ml final
From the text: The effect of a rice extract fermented by a selected strain of Monascus sp., prepared in accordance with Example 1, on ruminal fermentation, specifically on methane production, was studied in vitro by using a sequential batch fermentation system.
Three sheep equipped with rumen cannulae, receiving hay-based feed twice a day, were used as ruminal content donors. The ruminal contents of the three animals were sampled in the morning before feeding, filtered through a cloth with a mesh size of 400 μm in diameter in order to obtain the liquid phase, and mixed in equal quantities. To seventy-five milliliters of this mixed ruminal fluid was added 300 ml of anaerobic buffer solution (Weller & Pilgrim, Br. J. Nutr. 32:341-51. 1974). An aliquot fraction (5 ml) of this ruminal fluid/buffer solution was then transferred into Hungate tubes in a CO2 atmosphere containing 100±2 mg of alfalfa hay. To each tube was added, respectively: (i) 100 μl of the Monascus extract, or (ii) pure monacolin K, (iii) a 25% (v/v) ethanol solution, or (iv) water (see Table 1 below). The tubes were incubated at 39° C. for 48 hrs. Each treatment was performed three times.
After 48 hrs. of incubation, 2 ml of each of the triplicates of each treatment were mixed, and 1.5 ml of this mixture was used to inoculate 3 new Hungate tubes containing 3.5 ml of buffer and 100 mg of alfalfa hay.
Next, 100 μl of the various treatments was added to the tubes (Cf. Table 1 above), and the tubes were again incubated at 39° C. while stirring for an additional 48 hrs. This procedure was repeated a second time.
At the end of each 48-hr. period, gas production and concentrations of methane and of volatile fatty acids resulting from fermentation were measured.

`CC[C@H](C)C(=O)O[C@H]1C[C@@H](C)C=C2C=C[C@H](C)[C@H](CC[C@@H]3C[C@@H](O)CC(=O)O3)[C@H]21` [Monacolin K, monacolin K] gave an Acetate (1st Transfer) of 69.6 ± 1.5 mmol/L, a Butyrate (1st Transfer) of 6.1 ± 0.1 mmol/L and a Gas (1st Transfer) of 21.9 ± 0.3 mL. For the same molecule, the Methane (1st Transfer) was 162.5 ± 22.9 µmol, the Propionate (1st Transfer) was 16.7 ± 0.4 mmol/L and the “Total VFA” value (1st Transfer) was 96.3 ± 2.1. The Acetate (2nd Transfer) was 49.1 ± 3.8 mmol/L, the Butyrate (2nd Transfer) was 5.9 ± 0.7 mmol/L and the Gas (2nd Transfer) was 17.8 ± 0.5 mL. The Methane (2nd Transfer) was 16.2 ± 17.0 µmol, the Propionate (2nd Transfer) was 19.7 ± 2.8 mmol/L and the “Total VFA” value (2nd Transfer) was 76.5 ± 7.4. The Acetate (3rd Transfer) was 57.3 ± 6.9 mmol/L, the Butyrate (3rd Transfer) was 6.6 ± 1.0 mmol/L and the Gas (3rd Transfer) was 19.2 ± 0.4 mL. For the same molecule, the Methane (3rd Transfer) was 59.1 ± 9.4 µmol, the Propionate (3rd Transfer) was 28.5 ± 3.5 mmol/L and the “Total VFA” value (3rd Transfer) was 95.1 ± 11.5. The methane-production-reducing effect (in vitro, under the same conditions as the Monascus fermentation product) was “no methane-production-reducing effect”.
